Data from EP4775577A1, “RAS INHIBITOR” (Tyligand Bioscience (Shanghai) Limited, priority 2023, dated 2025).

Key:
Ba/F3-KRAS-G12R = test: Ba/F3 KRAS-mutant cell proliferation inhibition (CellCounting-Lite 2.0); format: cell-based; conditions: Mus musculus, BaF3, Ba/F3-KRAS-G12R (KC-2026), 72 h
Text: (§1) This experiment evaluated the proliferation inhibitory activity of the compounds of the present invention against Ba/F3-KRAS mutant cell lines by using the CellCounting-Lite®2.0 method.
(§2) The following materials, reagents, and instruments were used in this experiment: Cells were all obtained from Kangyuan Bochuang Biotechnology (Beijing) Co., Ltd. RPMI-1640 (Hyclone, SH30809.01); fetal bovine serum (FBS) was used. (GIBCO, 10099-141); Phosphate-buffered saline (PBS) (Solarbio, P1020-500); CellCounting-Lite 2.0 Luminescent Cell Viability Assay (Vazyme, DD1101-02); 96-well plate (Absin, abs7016); Multifunctional microplate reader (BMG LABTECH, CLARIOstar® Plus); CO2 incubator (Thermo Scientific, Model 3100 Series).
(§3) All cell lines were cultured in complete medium at 37°C and 5% CO2. Cells in the logarithmic growth phase were harvested and counted using a platelet counter. Cell viability was assessed using the trypan blue exclusion method to ensure a viability of over 90%. Cell density was adjusted using complete medium (RPMI 1640+10% FBS) and then seeded into 96-well cell culture plates at 90 µL per well, for a total of 3000 cells. The cells in the 96-well plates were cultured at 37°C and 5% CO2. A 10-fold drug solution was prepared using complete medium, and then 10 µL of each serially diluted compound was transferred to the corresponding wells of the 96-well cell culture plate, with two replicates for each drug concentration. The cells in the drug-treated 96-well plates were cultured at 37°C and 5% CO2 for 72 h, followed by CellCounting-Lite 2.0 analysis.
(§4) The CellCounting-Lite 2.0 Luminescent Cell Viability Assay reagent was thawed and the cell plate was equilibrated to room temperature for 30 minutes. An equal volume of CellCounting-Lite 2.0 Luminescent Cell Viability Assay solution was added to each well and the plate was shaken on an orbital shaker for 5 minutes to lyse the cells. The cell plate was placed at room temperature for 20 minutes to stabilize the cryo-luminescence signal. The cryo-luminescence values were read and the data were collected.
(§5) Data was analyzed using GraphPad Prism 7.0 software. A nonlinear S-curve regression was used to fit the data to derive the dose-response curve, and the IC50 value was calculated from this curve. [formula]

Ba/F3-KRAS-G12C-A59T = test: as above; format: cell-based; conditions: Mus musculus, BaF3, Ba/F3-KRAS-G12C-A59T (KC-2610), 72 h
Text: as §1, §2, §3, §4, §5

Ba/F3-KRAS-Q61H = test: as above; format: cell-based; conditions: Mus musculus, BaF3, Ba/F3-KRAS-Q61H (KC-2620), 72 h
Text: as §1, §2, §3, §4, §5

Ba/F3-KRAS-G12S = test: as above; format: cell-based; conditions: Mus musculus, BaF3, Ba/F3-KRAS-G12S (KC-2894), 72 h
Text: as §1, §2, §3, §4, §5

Ba/F3-KRAS-G12D = test: as above; format: cell-based; conditions: Mus musculus, BaF3, Ba/F3-KRAS-G12D (KC-1259), 72 h
Text: as §1, §2, §3, §4, §5

Ba/F3-KRAS-G 12V = test: as above; format: cell-based; conditions: Mus musculus, BaF3, Ba/F3-KRAS-G 12V (KC-1261), 72 h
Text: as §1, §2, §3, §4, §5

Ba/F3-KRAS-G13D = test: as above; format: cell-based; conditions: Mus musculus, BaF3, Ba/F3-KRAS-G13D (KC-1436), 72 h
Text: as §1, §2, §3, §4, §5

Ba/F3-KRAS-G12C-H95L = test: as above; format: cell-based; conditions: Mus musculus, BaF3, Ba/F3-KRAS-G12C-H95L (KC-3683), 72 h
Text: as §1, §2, §3, §4, §5

[1] = system: KRAS G12V mutant NCI-H727 cells; test: Proliferation inhibition of NCI-H727 cells, 3D CellTiter-Glo assay (Method B); format: cell-based, human; conditions: Homo sapiens, NCI-H727, 120 h, Method B; 3D culture with 0.65% methylcellulose, 5 days, CTG; read-out: NCI-H727 IC50/nM
How it was run: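 Cells grown in 3D medium (RPMI-1640, 10% FBS, 0.65% methylcellulose) overnight, then treated 5 days at 37 °C, 5% CO2 with 9 threefold dilutions from 10 µM top working concentration, duplicate wells. CellTiter-Glo luminescence read; IC50 (nM) fitted by dose-response-inhibition equation.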

Pharmacokinetics in mice = conditions: mouse, in vivo, po, 20 mg/kg
Protocol: Male CD-1 mice, aged 6-8 weeks, were purchased from Zhejiang Vital River Laboratory Animal Co., Ltd.
For the PO administration group, compounds were formulated in 0.5% Tween 80 and 99.5% (0.5%MC (400cp)) vehicle or 0.5%MC (400cp) vehicle to a final concentration of 1 mg/mL or 2 mg/mL for each compound. The drug formulation was administered to CD-1 mice via gavage at a dose of 10 mL/kg. Blood samples were collected from the submandibular vein or other suitable means at 15 min, 30 min, 1 h, 2 h, 4 h, 6 h, 8 h, and 24 h after administration. The blood samples were centrifuged at low temperature for 5 minutes, and the plasma was collected and stored at -80°C for analysis.
10 µL of plasma sample was taken, 200 µL of methanol containing an internal standard as a precipitant was added to precipitate plasma proteins, the compounds to be tested in the plasma was extracted, centrifuged at low temperature, and 10 µL of the supernatant was injected. The drug concentration in blood plasma was analyzed by LC-MS/MS. The pharmacokinetic parameters were calculated using Winnonlin based on the blood drug concentration data at different time points.

[2] = 0.05uM, read-out: Inhibition rate% @0.05uM
[3] = 1uM, read-out: Inhibition rate% @1uM

With `CCN1CC/C(=C\F)[C@](C)(COc2nc(N3Cc4c(COC)c(C(=O)N(C)C)nn4CC[C@@H]3C)c3cc(Cl)c(-c4c(F)ccc5sc(N)c(C#N)c45)c(F)c3n2)C1` (single isomer, unassigned) [Example 228A] the inhibition at 0.05 µM (Ba/F3-KRAS-G12R; [2]) was 85.7%, the inhibition at 1 µM (Ba/F3-KRAS-G12R; [3]) was 97.6% and the inhibition at 0.05 µM (Ba/F3-KRAS-G12C-A59T; [2]) was 79.8%. It also gave an inhibition at 1 µM (Ba/F3-KRAS-G12C-A59T; [3]) of 95.1%, an inhibition at 0.05 µM (Ba/F3-KRAS-Q61H; [2]) of 99.1% and an inhibition at 1 µM (Ba/F3-KRAS-Q61H; [3]) of 99.6%. The inhibition at 0.05 µM (Ba/F3-KRAS-G12S; [2]) was 96.4%, the inhibition at 1 µM (Ba/F3-KRAS-G12S; [3]) was 98.8% and the inhibition at 0.05 µM (Ba/F3-KRAS-G12D; [2]) was 99.5%. For the same molecule, the inhibition at 1 µM (Ba/F3-KRAS-G12D; [3]) was 99.8%, the inhibition at 0.05 µM (Ba/F3-KRAS-G 12V; [2]) was 99.9% and the inhibition at 1 µM (Ba/F3-KRAS-G 12V; [3]) was 100%. For the same molecule, the inhibition at 0.05 µM (Ba/F3-KRAS-G13D; [2]) was 88.1%, the inhibition at 1 µM (Ba/F3-KRAS-G13D; [3]) was 98.2% and the inhibition at 0.05 µM (Ba/F3-KRAS-G12C-H95L; [2]) was 99.7%. The inhibition at 1 µM (Ba/F3-KRAS-G12C-H95L; [3]) was 100%, the IC50 [1] was < 1.5 nM and the AUC(0-t) at 8 h (Pharmacokinetics in mice) was 4130 ng·h/mL.
